Patent publication US20220401564A1 (DANA-FARBER CANCER INSTITUTE, INC., priority 2019, published 2022)
“Also recorded” adds a separate entry of the source.

Target: T1, HDAC6 (Homo sapiens, UniProt Q9UBN7)
T1 sequence (Q9UBN7 1-1215): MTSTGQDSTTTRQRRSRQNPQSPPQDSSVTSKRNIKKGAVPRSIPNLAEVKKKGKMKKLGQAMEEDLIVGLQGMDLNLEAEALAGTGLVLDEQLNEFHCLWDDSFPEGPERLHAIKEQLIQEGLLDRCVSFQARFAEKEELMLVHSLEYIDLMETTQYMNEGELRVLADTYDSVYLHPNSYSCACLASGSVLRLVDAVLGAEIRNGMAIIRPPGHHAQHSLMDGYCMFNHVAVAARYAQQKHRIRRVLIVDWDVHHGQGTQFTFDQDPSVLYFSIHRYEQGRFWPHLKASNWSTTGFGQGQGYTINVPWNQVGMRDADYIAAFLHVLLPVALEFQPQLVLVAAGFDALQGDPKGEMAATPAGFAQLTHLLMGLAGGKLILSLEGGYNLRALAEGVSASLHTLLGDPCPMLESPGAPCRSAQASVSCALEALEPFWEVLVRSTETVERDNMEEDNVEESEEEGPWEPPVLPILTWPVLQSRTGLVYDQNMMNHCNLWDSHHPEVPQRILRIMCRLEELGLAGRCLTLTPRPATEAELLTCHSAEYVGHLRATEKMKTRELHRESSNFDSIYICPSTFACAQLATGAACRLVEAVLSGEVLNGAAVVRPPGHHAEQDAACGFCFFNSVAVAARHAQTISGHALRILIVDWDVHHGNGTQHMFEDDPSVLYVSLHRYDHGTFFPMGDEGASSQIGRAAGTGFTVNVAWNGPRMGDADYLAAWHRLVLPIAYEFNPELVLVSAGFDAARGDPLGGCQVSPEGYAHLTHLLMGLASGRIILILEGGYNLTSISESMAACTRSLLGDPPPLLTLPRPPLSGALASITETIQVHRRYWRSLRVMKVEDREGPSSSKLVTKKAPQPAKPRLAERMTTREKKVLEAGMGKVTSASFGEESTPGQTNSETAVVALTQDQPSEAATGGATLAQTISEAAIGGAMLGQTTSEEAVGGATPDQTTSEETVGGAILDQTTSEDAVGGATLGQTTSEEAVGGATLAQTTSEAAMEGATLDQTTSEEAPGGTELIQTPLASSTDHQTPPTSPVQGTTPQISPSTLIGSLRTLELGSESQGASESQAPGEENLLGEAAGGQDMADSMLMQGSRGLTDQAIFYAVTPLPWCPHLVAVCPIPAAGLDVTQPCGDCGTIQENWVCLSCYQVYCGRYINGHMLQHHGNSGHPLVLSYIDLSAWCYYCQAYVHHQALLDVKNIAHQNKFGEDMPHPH
Experiment: Change in cellular protein abundance (TMT proteomics) in Kelly cells
Assay type: cell-based
Parameters: relative change in relative protein abundance with treatment of Kelly cells; endogenous in cells; host or cells: Kelly cells
Details: FIG. 3A

With `Cc1ncsc1-c1ccc(CNC(=O)[C@@H]2C[C@@H](O)CN2C(=O)[C@@H](NC(=O)C2(F)CC2)C(C)(C)C)c(OCCCCCN(CCc2c[nH]c3ccccc23)Cc2ccc(/C=C/C(=O)NO)cc2)c1` [Compound 7, (2S,4R)—N-(2-((5-((2-(1H-indol-3-yl)ethyl)(4-((E)-3-(hydroxyamino)-3-oxoprop-1-en-1-yl)benzyl)amino)pentyl)oxy)-4-(4-methylthiazol-5-yl)benzyl)-1-((S)-2-(1-fluorocyclopropane-1-carboxamido)-3,3-dimethylbutanoyl)-4-hydroxypyrrolidine-2-carboxamide] the “HDAC6 protein levels, relative protein abundance compared to DMSO control” value was “promote degradation; also recorded: significant and selective reduction”.
